# Measurements from ChEMBL document CHEMBL5532747, “Potent, Selective, and Orally Bioavailable Quinazoline-Based STK17A/B Dual Inhibitors” (ACS Med Chem Lett, 2024).
# Columns and labels:
# CYP2D6 = CYP2D6 (Homo sapiens, UniProt P10635); assay: Inhibition of CYP2D6 (unknown origin) using bufuralol as substrate at 10 uM by cocktail based assay relative to control; assay type: ADME; conditions: probe bufuralol
# [1] = biological target: T1, Serine/threonine-protein kinase 17A (Homo sapiens, UniProt Q9UEE5); assay: Inhibition of STK17A (unknown origin) in presence of ATP
# T1 sequence (Q9UEE5 whole entry): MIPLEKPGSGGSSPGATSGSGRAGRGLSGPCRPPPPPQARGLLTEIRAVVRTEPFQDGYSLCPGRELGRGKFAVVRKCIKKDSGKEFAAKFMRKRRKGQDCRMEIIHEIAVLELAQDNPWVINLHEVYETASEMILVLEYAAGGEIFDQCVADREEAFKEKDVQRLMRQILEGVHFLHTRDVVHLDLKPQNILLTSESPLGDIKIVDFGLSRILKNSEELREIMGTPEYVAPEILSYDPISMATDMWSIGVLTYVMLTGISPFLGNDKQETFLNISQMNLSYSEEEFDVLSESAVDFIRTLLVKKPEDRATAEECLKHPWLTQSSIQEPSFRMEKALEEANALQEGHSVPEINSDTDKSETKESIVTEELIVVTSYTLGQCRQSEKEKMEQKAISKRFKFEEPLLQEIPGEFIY
# [2] = Microsomal stability in mouse liver microsomes assessed as half life; assay type: ADME, Microsome
# [3] = biological target: T2, Myosin light chain kinase family member 4 (Homo sapiens, UniProt Q86YV6); assay: Inhibition of MYLK4 (unknown origin) in presence of ATP
# T2 sequence (Q86YV6 whole entry): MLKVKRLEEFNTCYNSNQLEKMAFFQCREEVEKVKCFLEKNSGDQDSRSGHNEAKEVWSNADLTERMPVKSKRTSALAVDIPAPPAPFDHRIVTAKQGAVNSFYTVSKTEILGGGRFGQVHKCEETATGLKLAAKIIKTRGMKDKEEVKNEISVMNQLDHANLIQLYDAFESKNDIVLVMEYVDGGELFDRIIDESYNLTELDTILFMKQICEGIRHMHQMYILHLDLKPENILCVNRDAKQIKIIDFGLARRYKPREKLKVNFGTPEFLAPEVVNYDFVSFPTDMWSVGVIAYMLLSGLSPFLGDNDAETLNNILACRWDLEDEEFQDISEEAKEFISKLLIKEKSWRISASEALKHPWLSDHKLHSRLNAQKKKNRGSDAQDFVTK
# CYP3A4 = CYP3A4 (Homo sapiens, UniProt P08684); assay: Inhibition of CYP3A4 (unknown origin) using midazolam as substrate at 10 uM by cocktail based assay relative to control; assay type: ADME; conditions: probe midazolam
# CYP2C9 = CYP2C9 (Homo sapiens, UniProt P11712); assay: Inhibition of CYP2C9 (unknown origin) using tolbutamide as substrate at 10 uM by cocktail based assay relative to control; assay type: ADME; conditions: probe tolbutamide
# CYP1A2 = biological target: T3, CYP1A2 (Homo sapiens, UniProt P05177); assay: Inhibition of CYP1A2 (unknown origin) using phenacetin as substrate at 10 uM by cocktail based assay relative to control; assay type: ADME; conditions: probe phenacetin
# T3 sequence (P05177 whole entry): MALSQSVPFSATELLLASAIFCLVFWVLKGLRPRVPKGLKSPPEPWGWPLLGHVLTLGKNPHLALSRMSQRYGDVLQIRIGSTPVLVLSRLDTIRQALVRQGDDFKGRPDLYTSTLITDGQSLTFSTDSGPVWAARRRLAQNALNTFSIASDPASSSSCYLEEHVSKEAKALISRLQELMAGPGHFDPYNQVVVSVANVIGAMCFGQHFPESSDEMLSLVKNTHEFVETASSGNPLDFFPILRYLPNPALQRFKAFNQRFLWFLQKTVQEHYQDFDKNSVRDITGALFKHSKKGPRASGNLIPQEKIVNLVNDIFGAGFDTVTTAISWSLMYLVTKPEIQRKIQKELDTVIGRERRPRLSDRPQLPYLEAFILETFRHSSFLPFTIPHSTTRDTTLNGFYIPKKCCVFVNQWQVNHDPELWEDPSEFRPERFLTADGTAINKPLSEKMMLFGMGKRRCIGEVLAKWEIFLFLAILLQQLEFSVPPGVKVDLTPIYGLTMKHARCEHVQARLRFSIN
# [4] = Microsomal stability in human liver microsomes assessed as half life; assay type: ADME, Microsome
# [5] = biological target: T4, Dual specificity protein kinase CLK4 (Homo sapiens, UniProt Q9HAZ1); assay: Inhibition of CLK4 (unknown origin) in presence of ATP
# Target sequence in this assay (Q9HAZ1 whole entry): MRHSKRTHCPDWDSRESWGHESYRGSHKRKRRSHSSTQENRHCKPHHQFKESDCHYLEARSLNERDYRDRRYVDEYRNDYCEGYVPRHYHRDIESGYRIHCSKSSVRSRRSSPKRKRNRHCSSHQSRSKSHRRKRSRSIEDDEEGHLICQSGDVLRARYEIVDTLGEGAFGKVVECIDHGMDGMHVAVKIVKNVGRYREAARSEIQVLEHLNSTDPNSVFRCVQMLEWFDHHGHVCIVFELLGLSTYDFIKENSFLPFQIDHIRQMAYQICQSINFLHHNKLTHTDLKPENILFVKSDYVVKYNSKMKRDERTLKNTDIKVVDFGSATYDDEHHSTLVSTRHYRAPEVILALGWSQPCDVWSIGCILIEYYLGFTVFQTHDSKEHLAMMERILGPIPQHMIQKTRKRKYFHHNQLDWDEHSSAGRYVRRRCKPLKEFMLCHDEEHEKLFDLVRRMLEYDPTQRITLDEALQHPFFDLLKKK
# HEL = assay: Antiproliferative activity against human HEL cells assessed as inhibition of cell growth incubated for 72 hrs by Cell Titer-Glo luminescence assay; assay type: functional, cell-based
# MOLM-13 = assay: Antiproliferative activity against human MOLM-13 cells assessed as inhibition of cell growth incubated for 72 hrs by Cell Titer-Glo luminescence assay; assay type: functional, cell-based; conditions: MOLM-13, 72 h
# [6] = Antiproliferative activity against human HEK293T cells assessed as inhibition of cell growth incubated for 72 hrs by Cell Titer-Glo luminescence assay; assay type: toxicity, cell-based, HEK-293T
# Kasumi 1 = assay: Antiproliferative activity against human Kasumi 1 cells assessed as inhibition of cell growth incubated for 72 hrs by Cell Titer-Glo luminescence assay; assay type: functional, cell-based; conditions: Kasumi 1, 72 h
# [7] = biological target: Dual specificity protein kinase CLK2 (Homo sapiens) (UniProt P49760); assay: Inhibition of CLK2 (unknown origin) at 100 nM in presence of ATP relative to control
# [8] = biological target: Serine/threonine-protein kinase 17A (Homo sapiens) (UniProt Q9UEE5); conditions: dose 100.0 nM
# Description: Inhibition of STK17A (unknown origin) at 100 nM in presence of ATP relative to control
# [9] = biological target: Inhibitor of nuclear factor kappa-B kinase subunit epsilon (Homo sapiens) (UniProt Q14164); assay: Inhibition of IKKepsilon (unknown origin) at 100 nM in presence of ATP relative to control
# [10] = biological target: T4, Dual specificity protein kinase CLK4; conditions: dose 100.0 nM
# Target sequence in this assay (Q9HAZ1 whole entry, looked up): as the sequence (Q9HAZ1 whole entry) above
# Description: Inhibition of CLK4 (unknown origin) at 100 nM in presence of ATP relative to control
# [11] = biological target: Myosin light chain kinase family member 4 (Homo sapiens) (UniProt Q86YV6); conditions: dose 100.0 nM
# Description: Inhibition of MYLK4 (unknown origin) at 100 nM in presence of ATP relative to control
# [12] = biological target: Serine/threonine-protein kinase TBK1 (Homo sapiens, UniProt Q9UHD2); assay: Inhibition of TBK1 (unknown origin) in presence of ATP
# [13] = biological target: Serine/threonine-protein kinase TBK1 (Homo sapiens) (UniProt Q9UHD2); conditions: dose 100.0 nM
# Description: Inhibition of TBK1 (unknown origin) at 100 nM in presence of ATP relative to control
# [14] = biological target: Serine/threonine-protein kinase Nek5 (Homo sapiens) (UniProt Q6P3R8); conditions: dose 100.0 nM
# Description: Inhibition of NEK5 (unknown origin) at 100 nM in presence of ATP relative to control
# [15] = AUClast in C57BL/6 mouse at 10 mg/kg,po administration and measured upto 24 hrs; assay type: ADME, organism-based; conditions: in vivo
# [16] = Tmax in C57BL/6 mouse at 10 mg/kg,po administration and measured upto 24 hrs; assay type: ADME, organism-based; conditions: in vivo
# [17] = biological target: Serine/threonine-protein kinase Nek3 (Homo sapiens) (UniProt P51956); conditions: dose 100.0 nM
# Description: Inhibition of NEK3 (unknown origin) at 100 nM in presence of ATP relative to control
# [18] = biological target: Serine/threonine-protein kinase Nek3 (Homo sapiens, UniProt P51956); assay: Inhibition of NEK3 (unknown origin) in presence of ATP
# LIM domain kinase 1 [19] = biological target: T5, LIM domain kinase 1 (Homo sapiens, UniProt P53667); assay: Inhibition of LIMK1 (unknown origin) in presence of ATP
# [20] = Half life in C57BL/6 mouse at 10 mg/kg,po administration and measured upto 24 hrs; assay type: ADME, organism-based; conditions: in vivo
# [21] = Cmax in C57BL/6 mouse at 10 mg/kg,po administration and measured upto 24 hrs; assay type: ADME, organism-based; conditions: in vivo
# LIM domain kinase 1 [22] = biological target: T5, LIM domain kinase 1; conditions: dose 100.0 nM
# Description: Inhibition of LIMK1 (unknown origin) at 100 nM in presence of ATP relative to control
# [23] = biological target: Serine/threonine-protein kinase Nek5 (Homo sapiens, UniProt Q6P3R8); assay: Inhibition of NEK5 (unknown origin) in presence of ATP
# [24] = biological target: Serine/threonine-protein kinase 17B (Homo sapiens) (UniProt O94768); assay: Inhibition of STK17B (unknown origin) at 1 uM in presence of ATP relative to control
# Chain of Serine/threonine-protein kinase 17B (Homo sapiens) (O94768 whole entry): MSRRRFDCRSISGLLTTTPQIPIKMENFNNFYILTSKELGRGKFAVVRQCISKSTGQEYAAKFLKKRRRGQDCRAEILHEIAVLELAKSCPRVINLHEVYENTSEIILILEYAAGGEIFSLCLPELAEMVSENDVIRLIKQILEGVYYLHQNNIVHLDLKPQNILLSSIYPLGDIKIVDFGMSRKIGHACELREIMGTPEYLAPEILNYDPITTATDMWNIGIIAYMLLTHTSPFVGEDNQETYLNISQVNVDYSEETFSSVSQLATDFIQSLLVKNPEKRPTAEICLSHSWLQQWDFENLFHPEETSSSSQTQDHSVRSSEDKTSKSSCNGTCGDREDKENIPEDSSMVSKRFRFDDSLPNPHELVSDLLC
# Chain of CYP3A4 (P08684 whole entry): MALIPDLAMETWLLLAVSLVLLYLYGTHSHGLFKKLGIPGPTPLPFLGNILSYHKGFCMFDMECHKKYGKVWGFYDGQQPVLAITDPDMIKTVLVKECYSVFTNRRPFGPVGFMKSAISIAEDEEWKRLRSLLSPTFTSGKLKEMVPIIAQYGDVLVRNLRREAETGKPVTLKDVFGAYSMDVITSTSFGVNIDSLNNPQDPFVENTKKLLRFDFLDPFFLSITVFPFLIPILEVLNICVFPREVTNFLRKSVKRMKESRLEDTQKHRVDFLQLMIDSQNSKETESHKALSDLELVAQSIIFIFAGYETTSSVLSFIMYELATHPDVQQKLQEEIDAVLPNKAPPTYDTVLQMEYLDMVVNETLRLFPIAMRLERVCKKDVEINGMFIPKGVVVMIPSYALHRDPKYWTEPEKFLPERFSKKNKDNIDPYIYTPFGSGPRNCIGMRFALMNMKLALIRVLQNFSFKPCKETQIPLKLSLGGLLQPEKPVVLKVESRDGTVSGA
# Chain of CYP2D6 (P10635 whole entry): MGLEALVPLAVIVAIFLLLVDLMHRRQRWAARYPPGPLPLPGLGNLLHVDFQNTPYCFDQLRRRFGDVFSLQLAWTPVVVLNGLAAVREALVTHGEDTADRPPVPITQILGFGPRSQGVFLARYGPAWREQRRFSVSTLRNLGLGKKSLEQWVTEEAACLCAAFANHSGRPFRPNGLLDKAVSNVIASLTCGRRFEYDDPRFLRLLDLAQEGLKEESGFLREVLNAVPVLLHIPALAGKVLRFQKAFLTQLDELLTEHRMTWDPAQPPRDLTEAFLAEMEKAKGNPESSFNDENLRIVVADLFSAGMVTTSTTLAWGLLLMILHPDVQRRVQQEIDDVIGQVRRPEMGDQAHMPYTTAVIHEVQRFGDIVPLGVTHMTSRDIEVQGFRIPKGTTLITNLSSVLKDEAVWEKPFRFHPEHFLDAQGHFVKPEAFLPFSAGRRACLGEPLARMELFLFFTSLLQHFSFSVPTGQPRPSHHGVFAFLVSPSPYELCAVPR
# Chain of CYP2C9 (P11712 whole entry): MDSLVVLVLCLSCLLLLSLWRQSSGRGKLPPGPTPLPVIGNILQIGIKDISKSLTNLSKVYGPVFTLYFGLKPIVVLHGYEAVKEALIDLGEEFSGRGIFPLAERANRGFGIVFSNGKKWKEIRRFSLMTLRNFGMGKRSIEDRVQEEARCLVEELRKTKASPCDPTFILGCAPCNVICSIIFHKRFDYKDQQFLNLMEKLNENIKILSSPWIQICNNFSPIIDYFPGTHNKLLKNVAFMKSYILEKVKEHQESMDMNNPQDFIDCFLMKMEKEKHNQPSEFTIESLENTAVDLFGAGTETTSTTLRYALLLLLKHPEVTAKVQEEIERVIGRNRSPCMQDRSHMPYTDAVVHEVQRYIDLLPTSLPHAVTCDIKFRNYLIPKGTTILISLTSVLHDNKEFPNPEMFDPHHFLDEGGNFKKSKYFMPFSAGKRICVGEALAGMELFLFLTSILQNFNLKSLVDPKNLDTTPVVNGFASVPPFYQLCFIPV
# Chain of Serine/threonine-protein kinase TBK1 (Q9UHD2 whole entry): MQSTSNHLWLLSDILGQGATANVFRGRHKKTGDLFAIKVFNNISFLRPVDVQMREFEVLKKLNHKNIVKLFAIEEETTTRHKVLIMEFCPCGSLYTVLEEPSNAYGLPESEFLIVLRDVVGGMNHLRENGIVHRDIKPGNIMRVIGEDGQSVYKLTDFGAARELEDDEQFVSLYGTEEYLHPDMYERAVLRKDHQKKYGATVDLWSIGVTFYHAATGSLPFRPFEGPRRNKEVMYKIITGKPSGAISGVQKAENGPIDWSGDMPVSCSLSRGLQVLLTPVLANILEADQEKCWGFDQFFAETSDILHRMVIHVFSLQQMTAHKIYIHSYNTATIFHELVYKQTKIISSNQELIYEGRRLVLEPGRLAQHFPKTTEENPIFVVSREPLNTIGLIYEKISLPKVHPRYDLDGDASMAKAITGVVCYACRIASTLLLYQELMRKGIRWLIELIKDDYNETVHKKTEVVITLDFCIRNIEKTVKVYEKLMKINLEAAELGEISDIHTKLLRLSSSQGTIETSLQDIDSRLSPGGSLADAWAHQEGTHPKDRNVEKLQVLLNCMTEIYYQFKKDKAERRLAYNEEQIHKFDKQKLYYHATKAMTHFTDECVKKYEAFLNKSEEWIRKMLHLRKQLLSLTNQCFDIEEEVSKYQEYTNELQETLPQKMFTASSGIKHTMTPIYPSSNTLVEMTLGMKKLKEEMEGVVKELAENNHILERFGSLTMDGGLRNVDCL
# Chain of Serine/threonine-protein kinase TBK1 (Homo sapiens) (Q9UHD2 whole entry): as above
# Chain of Serine/threonine-protein kinase Nek5 (Q6P3R8 whole entry): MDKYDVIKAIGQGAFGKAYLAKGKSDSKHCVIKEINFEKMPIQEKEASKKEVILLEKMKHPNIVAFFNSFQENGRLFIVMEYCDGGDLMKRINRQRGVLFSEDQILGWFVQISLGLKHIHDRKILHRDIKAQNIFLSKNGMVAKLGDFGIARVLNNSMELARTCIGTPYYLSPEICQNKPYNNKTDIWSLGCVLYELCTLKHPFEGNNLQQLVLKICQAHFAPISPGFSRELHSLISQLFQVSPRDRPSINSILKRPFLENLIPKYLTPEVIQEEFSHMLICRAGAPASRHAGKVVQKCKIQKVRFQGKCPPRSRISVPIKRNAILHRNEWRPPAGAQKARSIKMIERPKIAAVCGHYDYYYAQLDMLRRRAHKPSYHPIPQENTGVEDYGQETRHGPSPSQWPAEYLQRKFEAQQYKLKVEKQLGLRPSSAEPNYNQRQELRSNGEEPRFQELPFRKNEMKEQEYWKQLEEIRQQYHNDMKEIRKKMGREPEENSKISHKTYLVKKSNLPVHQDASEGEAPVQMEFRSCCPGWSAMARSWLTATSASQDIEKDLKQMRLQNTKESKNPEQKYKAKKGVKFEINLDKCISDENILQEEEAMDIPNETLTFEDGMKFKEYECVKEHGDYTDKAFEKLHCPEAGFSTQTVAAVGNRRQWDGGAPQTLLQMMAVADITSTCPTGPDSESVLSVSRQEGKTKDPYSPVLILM
# Chain of Serine/threonine-protein kinase Nek5 (Homo sapiens) (Q6P3R8 whole entry): as above
# Chain of Dual specificity protein kinase CLK2 (Homo sapiens) (P49760 whole entry, looked up): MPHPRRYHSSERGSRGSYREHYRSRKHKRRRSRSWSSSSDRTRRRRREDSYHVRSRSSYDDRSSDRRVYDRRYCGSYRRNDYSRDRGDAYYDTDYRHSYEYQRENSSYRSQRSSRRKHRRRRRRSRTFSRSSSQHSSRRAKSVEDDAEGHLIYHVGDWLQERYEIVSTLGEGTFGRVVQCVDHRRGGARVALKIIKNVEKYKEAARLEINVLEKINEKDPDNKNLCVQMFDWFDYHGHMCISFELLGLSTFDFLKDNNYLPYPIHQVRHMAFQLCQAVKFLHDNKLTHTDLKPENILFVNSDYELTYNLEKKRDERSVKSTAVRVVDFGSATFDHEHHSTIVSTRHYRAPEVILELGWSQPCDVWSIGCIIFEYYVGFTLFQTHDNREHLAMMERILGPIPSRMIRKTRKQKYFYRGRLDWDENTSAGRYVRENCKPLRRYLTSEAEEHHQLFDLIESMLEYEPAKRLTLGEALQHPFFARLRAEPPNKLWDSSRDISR
# Chain of Serine/threonine-protein kinase Nek3 (P51956 whole entry, the tested form may be a part): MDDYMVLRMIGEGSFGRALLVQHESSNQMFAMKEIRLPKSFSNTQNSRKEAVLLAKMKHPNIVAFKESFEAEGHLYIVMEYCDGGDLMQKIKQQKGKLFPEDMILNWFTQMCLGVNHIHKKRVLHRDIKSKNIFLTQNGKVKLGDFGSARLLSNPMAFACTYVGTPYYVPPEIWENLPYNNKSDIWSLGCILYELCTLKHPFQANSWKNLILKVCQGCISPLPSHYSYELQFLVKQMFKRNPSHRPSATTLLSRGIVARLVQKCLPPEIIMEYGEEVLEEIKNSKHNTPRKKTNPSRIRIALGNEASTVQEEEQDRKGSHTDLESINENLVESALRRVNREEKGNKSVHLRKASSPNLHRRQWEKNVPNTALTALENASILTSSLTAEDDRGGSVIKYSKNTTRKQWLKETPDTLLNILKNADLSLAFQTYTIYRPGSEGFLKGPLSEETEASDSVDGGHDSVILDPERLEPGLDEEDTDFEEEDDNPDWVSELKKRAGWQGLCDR
# Chain of Serine/threonine-protein kinase Nek3 (Homo sapiens) (P51956 whole entry): as the sequence (P51956 whole entry, the tested form may be a part) above
Compound,inhibition at 10 µM (CYP2D6),IC50 [1],half-life [2],IC50 [3],inhibition at 10 µM (CYP3A4),inhibition at 10 µM (CYP2C9),inhibition at 10 µM (CYP1A2),half-life [4],IC50 [5],further results
c1cc(-c2ccc3nc(N4CCOCC4)ncc3c2)nc(Nc2ccc(N3CCNCC3)cc2)n1,< 10%,20 nM,16 min,4 nM,11%,7%,< 10%,12 min,–,–
c1cc(-c2ccc3nc(N4CCOCC4)ncc3c2)nc(Nc2cnn(C3CCNCC3)c2)n1,< 10%,19 nM,62 min,6 nM,< 10%,< 10%,11%,84 min,–,–
c1cc(-c2ccc3nc(N4CCCC4)ncc3c2)nc(Nc2ccc(N3CCOCC3)cc2)n1,< 10%,43 nM,35 min,46 nM,22%,14%,< 10%,69 min,–,–
c1cc(-c2ccc3nc(N4CCCC4)ncc3c2)nc(Nc2cnn(C3CCNCC3)c2)n1,5%,20 nM,> 100 min,6 nM,< 10%,< 10%,52%,23 min,–,–
OCCN1CCC(c2ccc(Nc3nccc(-c4ccc5nc(N6C[C@@H]7C[C@H]6CO7)ncc5c4)n3)cn2)CC1,< 10%,17 nM,69 min,40 nM,< 10%,< 10%,< 10%,20 min,1120 nM,–
COC(=O)N1CCC(c2ccc(Nc3nccc(-c4ccc5nc(N6CCCC6)ncc5c4)n3)cn2)CC1,–,66 nM,–,–,–,–,–,–,–,–
OCCN1CCC(n2cc(Nc3ncc(F)c(-c4ccc5nc(N6CCOCC6)ncc5c4)n3)cn2)CC1,< 10%,21 nM,83 min,17 nM,< 10%,< 10%,< 10%,97 min,–,IC50 (HEL): 2960 nM; IC50 (MOLM-13): 1960 nM; IC50 at 72 h [6]: 16200 nM; IC50 (Kasumi 1): 760 nM
c1cc(-c2ccc3nc(N4CCCC4)ncc3c2)nc(Nc2ccc(N3CCNCC3)cc2)n1,2%,55 nM,9 min,27 nM,22%,23%,7%,> 100 min,–,–
c1cc(-c2ccc3nc(N4CCCC4)ncc3c2)nc(Nc2ccc(N3CCNCC3)nc2)n1,–,18 nM,–,2 nM,–,–,–,–,124 nM,IC50 (HEL): 1930 nM; inhibition [7]: 50%; inhibition [8]: 75%; IC50 (MOLM-13): 1340 nM; IC50 at 72 h [6]: 11700 nM; inhibition [9]: 45%; inhibition [10]: 50%; inhibition [11]: 95%; IC50 [12]: 135 nM; inhibition [13]: 45%; IC50 (Kasumi 1): 1190 nM
CC(C)NC(=O)c1ccc(Nc2nccc(-c3ccc4nc(N5CCCC5)ncc4c3)n2)cn1,16%,12 nM,92 min,85 nM,25%,39%,22%,61 min,> 10000 nM,–
CC(C)NC(=O)c1ccc(Nc2nccc(-c3ccc4nc(N5CCOCC5)ncc4c3)n2)cc1,1%,20 nM,59 min,68 nM,< 10%,< 10%,12%,16 min,–,–
O=C(NC1CCNCC1)c1ccc(Nc2nccc(-c3ccc4nc(N5CCCC5)ncc4c3)n2)cc1,–,316 nM,–,–,–,–,–,–,–,–
CN1CCN(c2ccc(Nc3nccc(-c4ccc5nc(N6CCCC6)ncc5c4)n3)cc2)CC1,–,51 nM,–,–,–,–,–,–,–,–
OCCN1C[C@@H]2C[C@H]1CN2c1ccc(Nc2ncc(F)c(-c3ccc4nc(N5CCCC5)ncc4c3)n2)cn1,–,48 nM,–,13 nM,–,–,–,–,160 nM,–
CC(C)NC(=O)c1ccc(Nc2ncc(F)c(-c3ccc4nc(N5CCCC5)ncc4c3)n2)cc1,< 10%,25 nM,22 min,> 1000 nM,< 10%,< 10%,< 10%,44 min,> 10000 nM,–
COC(=O)N1CCC(c2ccc(Nc3nccc(-c4ccc5nc(N6C[C@@H]7C[C@H]6CO7)ncc5c4)n3)cn2)CC1,–,29 nM,–,–,–,–,–,–,–,–
CC(C)NC(=O)c1cccc(Nc2nccc(-c3ccc4nc(N5CCCC5)ncc4c3)n2)c1,–,144 nM,–,–,–,–,–,–,–,–
c1cc(-c2ccc3nc(N4CCCC4)ncc3c2)nc(Nc2ccc(OC3CCNCC3)cc2)n1,–,> 10000 nM,–,–,–,–,–,–,–,–
CC(C)NC(=O)c1ccc(Nc2nccc(-c3ccc4nc(N5CCCC5)ncc4c3)n2)cc1,3%,23 nM,37 min,440 nM,16%,14%,< 10%,45 min,> 10000 nM,inhibition [14]: 45%; IC50 (HEL): 2310 nM; AUC(0-t) at 24 h [15]: 4.2 µM·h; Tmax [16]: 60 min; IC50 (MOLM-13): 920 nM; inhibition [17]: 40%; IC50 [18]: 245 nM; IC50 at 72 h [6]: 99500 nM; IC50 (LIM domain kinase 1 [19]): 650 nM; half-life [20]: 162 min; Cmax [21]: 1000 nM; inhibition (LIM domain kinase 1 [22]): 46%; IC50 [23]: 132 nM; IC50 (Kasumi 1): 7670 nM; inhibition [24]: 98%
